Assay results: the supplement of paper PMC10307832

What was measured:
Assay in all cases: relative viability (nuclei count vs DMSO), 5 days (fraction); higher = more cells survive
5-Fluorouracil = compound: O=c1[nH]cc(F)c(=O)[nH]1 [5-Fluorouracil]
Outline: (§1)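 Five library-drug doses, separated by factors of √10, were pinned into 1536-well plates holding lung cancer cell lines after an overnight stay at 37 °C. Cells were fixed, permeabilised and Hoechst-stained in one step after 5 days without medium change, then imaged at 4×. Viability compares treated-well with vehicle-well nuclei, counted in MetaXpress, as a median across plates. Passing plates had control CV below 25% and at least one doubling.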

Staurosporine = compound: CN[C@@H]1C[C@H]2O[C@@](C)([C@@H]1OC)n1c3ccccc3c3c4c(c5c6ccccc6n2c5c31)C(=O)NC4 [Staurosporine]
Outline: as §1

Sulindac = compound: CC1=C(CC(=O)O)c2cc(F)ccc2/C1=C\c1ccc([S+](C)[O-])cc1 [Sulindac]
Outline: as §1

**Q.** Which relative viability (5-Fluorouracil; 0.02 µM) does the source give for LK-2 here?
**A.** 1.16

**Q.** And the relative viability (5-Fluorouracil; 0.2 µM)?
**A.** 0.989

**Q.** What about the relative viability (5-Fluorouracil; 0.6325 µM) of the same cell line?
**A.** 0.8

**Q.** What about the relative viability (5-Fluorouracil; 2 µM) of the same cell line?
**A.** 0.574

**Q.** What about the relative viability (Staurosporine; 0.005 µM) of the same cell line?
**A.** 1.17

**Q.** And the relative viability (Staurosporine; 0.01581 µM)?
**A.** 1.06

**Q.** And the relative viability (Staurosporine; 0.05 µM)?
**A.** 0.874

**Q.** And the relative viability (Staurosporine; 0.1581 µM)?
**A.** 0.366

**Q.** What about the relative viability (Staurosporine; 0.5 µM) of the same cell line?
**A.** 0.243

**Q.** What about the relative viability (Sulindac; 0.08 µM) of the same cell line?
**A.** 1.23

**Q.** What about the relative viability (Sulindac; 0.253 µM) of the same cell line?
**A.** 1.06

**Q.** And the relative viability (Sulindac; 0.8 µM)?
**A.** 0.78

**Q.** And the relative viability (Sulindac; 2.53 µM)?
**A.** 0.738

**Q.** What about the relative viability (Sulindac; 8 µM) of the same cell line?
**A.** 1.21

**Q.** NCI-H1650 was tested. Which relative viability (5-Fluorouracil; 0.02 µM) did it give?
**A.** 0.814

**Q.** And the relative viability (5-Fluorouracil; 0.2 µM)?
**A.** 0.878

**Q.** And the relative viability (5-Fluorouracil; 0.6325 µM)?
**A.** 0.564

**Q.** What about the relative viability (5-Fluorouracil; 2 µM) of the same cell line?
**A.** 0.343

**Q.** What about the relative viability (Staurosporine; 0.005 µM) of the same cell line?
**A.** 0.684

**Q.** And the relative viability (Staurosporine; 0.01581 µM)?
**A.** 0.372

**Q.** And the relative viability (Staurosporine; 0.05 µM)?
**A.** 0.314

**Q.** And the relative viability (Staurosporine; 0.1581 µM)?
**A.** 0.15

**Q.** And the relative viability (Staurosporine; 0.5 µM)?
**A.** 0.0851

**Q.** And the relative viability (Sulindac; 0.08 µM)?
**A.** 0.851

**Q.** And the relative viability (Sulindac; 0.253 µM)?
**A.** 1.1

**Q.** What about the relative viability (Sulindac; 0.8 µM) of the same cell line?
**A.** 0.732

**Q.** What about the relative viability (Sulindac; 2.53 µM) of the same cell line?
**A.** 0.942

**Q.** And the relative viability (Sulindac; 8 µM)?
**A.** 1.01

**Q.** Which results are given for IA-LM?
**A.** relative viability (5-Fluorouracil; 0.02 µM): 0.939; relative viability (5-Fluorouracil; 0.2 µM): 0.519; relative viability (5-Fluorouracil; 0.6325 µM): 0.295; relative viability (5-Fluorouracil; 2 µM): 0.241; relative viability (Staurosporine; 0.005 µM): 0.46; relative viability (Staurosporine; 0.01581 µM): 0.177; relative viability (Staurosporine; 0.05 µM): 0.17; relative viability (Staurosporine; 0.1581 µM): 0.107; relative viability (Staurosporine; 0.5 µM): 0.0831; relative viability (Sulindac; 0.08 µM): 0.835; relative viability (Sulindac; 0.253 µM): 1.07; relative viability (Sulindac; 2.53 µM): 1.02; relative viability (Sulindac; 8 µM): 1.01

**Q.** Which relative viability (5-Fluorouracil; 0.02 µM) does the source give for NCI-H1734 here?
**A.** 0.93

**Q.** What about the relative viability (5-Fluorouracil; 0.2 µM) of the same cell line?
**A.** 1.08

**Q.** And the relative viability (5-Fluorouracil; 0.6325 µM)?
**A.** 0.859

**Q.** And the relative viability (5-Fluorouracil; 2 µM)?
**A.** 0.461

**Q.** And the relative viability (Staurosporine; 0.005 µM)?
**A.** 0.899

**Q.** And the relative viability (Staurosporine; 0.01581 µM)?
**A.** 0.375

**Q.** What about the relative viability (Staurosporine; 0.05 µM) of the same cell line?
**A.** 0.291

**Q.** And the relative viability (Staurosporine; 0.1581 µM)?
**A.** 0.151

**Q.** What about the relative viability (Staurosporine; 0.5 µM) of the same cell line?
**A.** 0.113

**Q.** What about the relative viability (Sulindac; 0.08 µM) of the same cell line?
**A.** 1.17

**Q.** What about the relative viability (Sulindac; 0.253 µM) of the same cell line?
**A.** 1

**Q.** And the relative viability (Sulindac; 0.8 µM)?
**A.** 0.787

**Q.** What about the relative viability (Sulindac; 2.53 µM) of the same cell line?
**A.** 0.991

**Q.** And the relative viability (Sulindac; 8 µM)?
**A.** 1.07

**Q.** NCI-H441 was tested. Which relative viability (5-Fluorouracil; 0.02 µM) did it give?
**A.** 0.887

**Q.** And the relative viability (5-Fluorouracil; 0.2 µM)?
**A.** 0.866

**Q.** And the relative viability (5-Fluorouracil; 0.6325 µM)?
**A.** 0.591

**Q.** What about the relative viability (5-Fluorouracil; 2 µM) of the same cell line?
**A.** 0.385

**Q.** What about the relative viability (Staurosporine; 0.005 µM) of the same cell line?
**A.** 0.889

**Q.** What about the relative viability (Staurosporine; 0.01581 µM) of the same cell line?
**A.** 0.275

**Q.** And the relative viability (Staurosporine; 0.05 µM)?
**A.** 0.266

**Q.** What about the relative viability (Staurosporine; 0.1581 µM) of the same cell line?
**A.** 0.18

**Q.** What about the relative viability (Staurosporine; 0.5 µM) of the same cell line?
**A.** 0.129

**Q.** And the relative viability (Sulindac; 0.08 µM)?
**A.** 1.34

**Q.** And the relative viability (Sulindac; 0.253 µM)?
**A.** 1.25

**Q.** What about the relative viability (Sulindac; 0.8 µM) of the same cell line?
**A.** 0.78

**Q.** And the relative viability (Sulindac; 2.53 µM)?
**A.** 1.09

**Q.** What about the relative viability (Sulindac; 8 µM) of the same cell line?
**A.** 1.37

**Q.** With NCI-H838 as the cell line, how does the relative viability (5-Fluorouracil; 0.02 µM) read?
**A.** 0.879

**Q.** What about the relative viability (5-Fluorouracil; 0.2 µM) of the same cell line?
**A.** 1.03

**Q.** What about the relative viability (5-Fluorouracil; 0.6325 µM) of the same cell line?
**A.** 0.597

**Q.** And the relative viability (5-Fluorouracil; 2 µM)?
**A.** 0.387

**Q.** What about the relative viability (Staurosporine; 0.005 µM) of the same cell line?
**A.** 0.447

**Q.** And the relative viability (Staurosporine; 0.01581 µM)?
**A.** 0.315

**Q.** What about the relative viability (Staurosporine; 0.05 µM) of the same cell line?
**A.** 0.221

**Q.** And the relative viability (Staurosporine; 0.1581 µM)?
**A.** 0.189

**Q.** What about the relative viability (Staurosporine; 0.5 µM) of the same cell line?
**A.** 0.126

**Q.** What about the relative viability (Sulindac; 0.08 µM) of the same cell line?
**A.** 1.05

**Q.** What about the relative viability (Sulindac; 0.253 µM) of the same cell line?
**A.** 1.04

**Q.** What about the relative viability (Sulindac; 0.8 µM) of the same cell line?
**A.** 0.879

**Q.** What about the relative viability (Sulindac; 2.53 µM) of the same cell line?
**A.** 0.94

**Q.** What about the relative viability (Sulindac; 8 µM) of the same cell line?
**A.** 1.07

**Q.** NCI-H23 was tested. Which relative viability (5-Fluorouracil; 0.02 µM) did it give?
**A.** 1

**Q.** And the relative viability (5-Fluorouracil; 0.2 µM)?
**A.** 1.13

**Q.** What about the relative viability (5-Fluorouracil; 0.6325 µM) of the same cell line?
**A.** 0.601

**Q.** What about the relative viability (5-Fluorouracil; 2 µM) of the same cell line?
**A.** 0.387

**Q.** And the relative viability (Staurosporine; 0.005 µM)?
**A.** 0.704

**Q.** And the relative viability (Staurosporine; 0.01581 µM)?
**A.** 0.139

**Q.** What about the relative viability (Staurosporine; 0.05 µM) of the same cell line?
**A.** 0.367

**Q.** What about the relative viability (Staurosporine; 0.1581 µM) of the same cell line?
**A.** 0.164

**Q.** And the relative viability (Staurosporine; 0.5 µM)?
**A.** 0.117

**Q.** What about the relative viability (Sulindac; 0.08 µM) of the same cell line?
**A.** 1.19

**Q.** What about the relative viability (Sulindac; 0.253 µM) of the same cell line?
**A.** 0.802

**Q.** And the relative viability (Sulindac; 0.8 µM)?
**A.** 0.701

**Q.** And the relative viability (Sulindac; 2.53 µM)?
**A.** 0.799

**Q.** And the relative viability (Sulindac; 8 µM)?
**A.** 1.15

**Q.** For NCI-H1395, which relative viability (5-Fluorouracil; 0.02 µM) is on record?
**A.** 0.899

**Q.** What about the relative viability (5-Fluorouracil; 0.2 µM) of the same cell line?
**A.** 1.03

**Q.** And the relative viability (5-Fluorouracil; 0.6325 µM)?
**A.** 0.937

**Q.** And the relative viability (5-Fluorouracil; 2 µM)?
**A.** 0.826

**Q.** And the relative viability (Staurosporine; 0.005 µM)?
**A.** 0.609

**Q.** And the relative viability (Staurosporine; 0.01581 µM)?
**A.** 0.364

**Q.** What about the relative viability (Staurosporine; 0.05 µM) of the same cell line?
**A.** 0.488

**Q.** And the relative viability (Staurosporine; 0.1581 µM)?
**A.** 0.331

**Q.** And the relative viability (Staurosporine; 0.5 µM)?
**A.** 0.253

**Q.** What about the relative viability (Sulindac; 0.08 µM) of the same cell line?
**A.** 1.11

**Q.** What about the relative viability (Sulindac; 0.253 µM) of the same cell line?
**A.** 0.968

**Q.** And the relative viability (Sulindac; 0.8 µM)?
**A.** 0.938

**Q.** What about the relative viability (Sulindac; 2.53 µM) of the same cell line?
**A.** 0.804

**Q.** What about the relative viability (Sulindac; 8 µM) of the same cell line?
**A.** 1.14

**Q.** Which results are given for NCI-H647?
**A.** relative viability (5-Fluorouracil; 0.02 µM): 1; relative viability (5-Fluorouracil; 0.2 µM): 1.11; relative viability (5-Fluorouracil; 0.6325 µM): 0.842; relative viability (5-Fluorouracil; 2 µM): 0.623; relative viability (Staurosporine; 0.005 µM): 0.546; relative viability (Staurosporine; 0.01581 µM): 0.317; relative viability (Staurosporine; 0.05 µM): 0.295; relative viability (Staurosporine; 0.1581 µM): 0.0837; relative viability (Staurosporine; 0.5 µM): 0.059; relative viability (Sulindac; 0.08 µM): 1.32; relative viability (Sulindac; 0.253 µM): 1.15; relative viability (Sulindac; 0.8 µM): 0.791; relative viability (Sulindac; 2.53 µM): 0.898; relative viability (Sulindac; 8 µM): 1.11

**Q.** With NCI-H520 as the cell line, how does the relative viability (5-Fluorouracil; 0.02 µM) read?
**A.** 0.923

**Q.** And the relative viability (5-Fluorouracil; 0.2 µM)?
**A.** 1.06

**Q.** What about the relative viability (5-Fluorouracil; 0.6325 µM) of the same cell line?
**A.** 0.73

**Q.** What about the relative viability (5-Fluorouracil; 2 µM) of the same cell line?
**A.** 0.516

**Q.** And the relative viability (Staurosporine; 0.005 µM)?
**A.** 1.14

**Q.** And the relative viability (Staurosporine; 0.01581 µM)?
**A.** 0.706

**Q.** What about the relative viability (Staurosporine; 0.05 µM) of the same cell line?
**A.** 0.698

**Q.** And the relative viability (Staurosporine; 0.1581 µM)?
**A.** 0.272

**Q.** And the relative viability (Staurosporine; 0.5 µM)?
**A.** 0.163

**Q.** What about the relative viability (Sulindac; 0.08 µM) of the same cell line?
**A.** 1.16

**Q.** What about the relative viability (Sulindac; 0.253 µM) of the same cell line?
**A.** 1.08

**Q.** What about the relative viability (Sulindac; 0.8 µM) of the same cell line?
**A.** 0.891

**Q.** What about the relative viability (Sulindac; 2.53 µM) of the same cell line?
**A.** 0.957

**Q.** And the relative viability (Sulindac; 8 µM)?
**A.** 1.06
